# Measured values reported in patent publication US20190246658A1, “METHODS OF HANDLING PAPAYA” (AGROFRESH INC., priority 2013, published 2019).
# Experiments:
# Papayas ‘Golden’ [1] = test: Example 3: papaya skin color rating, MAP bags with different perforations; type: in vivo; details: for Skin color ratings: 100 ppb of MCP, scale 1 green to 5 yellow
# Procedure: Papayas ‘Golden’ were harvested in Linhares—Espírito Santo—Brazil. The fruits were packed in MAP Bags and put in cardboard boxes.
# (§1) The appropriate weight of papayas was placed in each bag after harvest. Bags were placed in the same cardboard boxes used to export the fruits. Papayas then were cold stored at (11° C.) at the Laboratory.
# (§2) The Test Protocol that was used was as follows. 40 MAP bags were packed. Each bag held approximately 3.8 kg (8.4 lb) of papayas. One of such bag was packed in each cardboard box. Total weight of papayas in MAP bags was approximately 152 kg. Approximately 8 kg of papayas were placed into cardboard boxes identical to those used for the MAP bags.
# The MAP-packaged papayas were packaged as follows: Nine fruits, approximately 3.8 kg, were carefully placed into microperforated MAP-bags, and the bags were sealed by twisting the open side of the bag, folding down the twisted end, and placing a rubber band around the twisted and folded end of the bag.
# All papayas were kept at cold temperature (11° C.) during 14 days and after that the fruits (packed in MAP bags or not) were put in room temperature (24° C.) during 5 days.
# One day after harvest, when the papayas had around 30 lbf of average firmness, each treatment set was marked and placed in a hermetical chamber at cold temperature (11° C.). All chambers were of equal size and packed the same way. Treatment was for 12 hours.
# In the chambers, SmartFresh™ was placed at the beginning of the treatment period for the 5 “MCP” treatment groups. The amount of SmartFresh™ was chosen to achieve the indicated concentration of 1-methylcyclopropene in the atmosphere of the chamber.
# (§3) Evaluation for skin color and firmness was as follows. Day “zero” was the day the papayas were removed from the chamber and placed in storage.
# (§4) The Papaya Skin Color was rated with the following scale: 1: green; 2: approximately 25%; 3: approximately 50% colored; 4: approximately 75% colored; 5: yellow.
# Papayas ‘Golden’ [2] = test: Example 1: pulp firmness, internal (FTA); type: in vivo, papaya; details: for Pulp Firmness - Internal: 100 ppb of MCP
# Procedure: Papayas ‘Golden’ were harvested in Linhares—Espírito Santo—Brazil. The harvested fruits were packed in MAP Bags and put in cardboard boxes.
# as §1
# as §2, with “follows. 36” for “follows. 40”, “One” for “One of”, “approximately 137” for “approximately 152”, “Approximately 91” for “Approximately 8”
# (§5) The MAP-packaged papayas were packaged as follows: Nine fruits, approximately 3.8 kg were carefully placed into microperforated bags, and the bags were sealed by twisting the open side of the bag, folding down the twisted end, and placing a rubber band around the twisted and folded end of the bag.
# All papayas were kept at cold temperature (11° C.) during 27 days and after that the fruits (packed in MAP bags or not) were put in room temperature (22° C.) during 8 days.
# One day after harvest, when the papayas had around 25 lbf of average firmness, each treatment set was marked, placed in a hermetical chamber at cold temperature (11° C.). All chambers were of equal size and packed the same way. Treatment was for 12 hours. In the chambers for the 3 “MCP” treatment groups, at the beginning of the treatment period, SmartFresh™ were placed in the chamber. The amount of SmartFresh™ was chosen to achieve the indicated concentration of 1-methylcyclopropene in the atmosphere of the chamber.
# as §3
# (§6) For the Pulp Firmness evaluation two measurements where done, one for External Firmness and another for Internal Firmness. For External Firmness, the papayas had the skin removed with a peeler and the pulp firmness was measured with a Firmness Texture Analyzer (FTA) with a probe of 8 mm. For Internal Firmness, the papayas were cut transversally and a measurement close to the center of the fruit was taken with the FTA.
# Papayas ‘Golden’ [3] = test: Example 2 (yellow stage): pulp firmness, internal; type: in vivo, papaya; details: 500 ppb of MCP
# Procedure: (§7) A similar test to Example 1 but papayas are tested during their yellow stage. Papayas ‘Golden’ were harvested in Linhares—Espírito Santo—Brazil. The fruits were packed in MAP Bags and put in cardboard boxes.
# (§8) The fruits were first left at room temperature during 3 days to reach yellow maturity stage.
# (§9) After that the appropriate weight of papayas was placed in each bag after harvest. Bags were placed in the same cardboard boxes used to export the fruits. Papayas then were cold stored at (11° C.) at the Laboratory.
# as §2, with “follows. 18” for “follows. 40”, “One” for “One of”, “approximately 68” for “approximately 152”, “Approximately 68” for “Approximately 8”
# as §5
# (§10) All papayas were kept at cold temperature (11° C.) during 26 days and after that the fruits (packed in MAP bags or not) were put in room temperature (22° C.) during 8 days.
# (§11) After the 3 days for maturation at room temperature, when the papayas had around 5 lbf of average firmness, each treatment set was marked, placed in a hermetical chamber at cold temperature (11° C.). All chambers were of equal size and packed the same way. Treatment was for 12 hr. In the chambers for the 2 “MCP” treatment groups, at the beginning of the treatment period, SmartFresh™ were placed in the chamber. The amount of SmartFresh™ was chosen to achieve the indicated concentration of 1-methylcyclopropene in the atmosphere of the chamber.
# as §3
# as §6, with “were” for “where”
# Papayas ‘Golden’ [4] = test: Example 2 (yellow stage): papaya skin color rating; type: in vivo; details: for Skin color ratings: 500 ppb of MCP, scale 1 green to 5 yellow
# Procedure: as §7, §8, §9
# as §2, with “follows. 18” for “follows. 40”, “One” for “One of”, “approximately 68” for “approximately 152”, “Approximately 68” for “Approximately 8”
# as §5, §10, §11, §3, §4
# [5] = MAP bag, 26 days at 11° C. then 0 days @ 22° C.
# [6] = MAP bag, 26 days at 11° C. then 4 days @ 22° C.
# [7] = MAP bag, 26 days at 11° C. then 8 days @ 22° C.
# [8] = No Bag, 26 days at 11° C. then 0 days @ 22° C.
# [9] = No Bag, 26 days at 11° C. then 4 days @ 22° C.
# [10] = No Bag, 26 days at 11° C. then 8 days @ 22° C.
smiles,measurement,setting,value
"CC1=CC1 [MCP, 1-methylcyclopropene]","papayas color, in words",Papayas ‘Golden’ [1]; 1-MCP alone (no MAP),did not hold the papayas color
same,Skin color ratings,"Papayas ‘Golden’ [1]; 24 Perf. MAP bag, 14 days at 11° C. then 0 days @ 24° C.",1.60
same,Skin color ratings,"Papayas ‘Golden’ [1]; 24 Perf. MAP bag, 14 days at 11° C. then 3 days @ 24° C.",2.04
same,Skin color ratings,"Papayas ‘Golden’ [1]; 24 Perf. MAP bag, 14 days at 11° C. then 5 days @ 24° C.",3.75
same,Skin color ratings,"Papayas ‘Golden’ [1]; 48 Perf. MAP bag, 14 days at 11° C. then 0 days @ 24° C.",1.96
same,Skin color ratings,"Papayas ‘Golden’ [1]; 48 Perf. MAP bag, 14 days at 11° C. then 3 days @ 24° C.",3.02
same,Skin color ratings,"Papayas ‘Golden’ [1]; 48 Perf. MAP bag, 14 days at 11° C. then 5 days @ 24° C.",4.52
same,Skin color ratings,"Papayas ‘Golden’ [1]; 90 Perf. MAP bag, 14 days at 11° C. then 0 days @ 24° C.",1.71
same,Skin color ratings,"Papayas ‘Golden’ [1]; 90 Perf. MAP bag, 14 days at 11° C. then 3 days @ 24° C.",3.18
same,Skin color ratings,"Papayas ‘Golden’ [1]; 90 Perf. MAP bag, 14 days at 11° C. then 5 days @ 24° C.",4.36
same,Skin color ratings,"Papayas ‘Golden’ [1]; 180 Perf. MAP bag, 14 days at 11° C. then 0 days @ 24° C.",1.73
same,Skin color ratings,"Papayas ‘Golden’ [1]; 180 Perf. MAP bag, 14 days at 11° C. then 3 days @ 24° C.",4.13
same,Skin color ratings,"Papayas ‘Golden’ [1]; 180 Perf. MAP bag, 14 days at 11° C. then 5 days @ 24° C.",4.84
same,Skin color ratings,"Papayas ‘Golden’ [1]; No Bag, 14 days at 11° C. then 0 days @ 24° C.",1.82
same,Skin color ratings,"Papayas ‘Golden’ [1]; No Bag, 14 days at 11° C. then 3 days @ 24° C.",4.11
same,Skin color ratings,"Papayas ‘Golden’ [1]; No Bag, 14 days at 11° C. then 5 days @ 24° C.",4.96
same,"skin coloring delay and external pulp firmness retention, in words",Papayas ‘Golden’ [1]; combination of 1-MCP and MAP bag versus any treatment alone,synergistic effect
same,"internal firmness during shelf-life, in words",Papayas ‘Golden’ [2]; 1-MCP alone (no MAP),too high internal firmness
same,Pulp Firmness - Internal,"Papayas ‘Golden’ [2]; MAP bag, 27 days at 11° C. then 0 days @ 22° C.",3.3 lbf
same,Pulp Firmness - Internal,"Papayas ‘Golden’ [2]; MAP bag, 27 days at 11° C. then 4 days @ 22° C.",3.2 lbf
same,Pulp Firmness - Internal,"Papayas ‘Golden’ [2]; MAP bag, 27 days at 11° C. then 8 days @ 22° C.",1.5 lbf
same,Pulp Firmness - Internal,"Papayas ‘Golden’ [2]; No Bag, 27 days at 11° C. then 0 days @ 22° C.",16.9 lbf
same,Pulp Firmness - Internal,"Papayas ‘Golden’ [2]; No Bag, 27 days at 11° C. then 4 days @ 22° C.",12.2 lbf
same,Pulp Firmness - Internal,"Papayas ‘Golden’ [2]; No Bag, 27 days at 11° C. then 8 days @ 22° C.",3.2 lbf
same,Pulp Firmness - Internal,Papayas ‘Golden’ [3]; [5],1.20 lbf
same,Pulp Firmness - Internal,Papayas ‘Golden’ [3]; [6],0.92 lbf
same,Pulp Firmness - Internal,Papayas ‘Golden’ [3]; [7],0.88 lbf
same,Pulp Firmness - Internal,Papayas ‘Golden’ [3]; [8],1.21 lbf
same,Pulp Firmness - Internal,Papayas ‘Golden’ [3]; [9],1.55 lbf
same,Pulp Firmness - Internal,Papayas ‘Golden’ [3]; [10],0.95 lbf
same,"papayas color, in words",Papayas ‘Golden’ [4]; 1-MCP alone (no MAP),did not hold the papayas color
same,Skin color ratings,Papayas ‘Golden’ [4]; [5],2.18
same,Skin color ratings,Papayas ‘Golden’ [4]; [6],3.62
same,Skin color ratings,Papayas ‘Golden’ [4]; [7],4.88
same,Skin color ratings,Papayas ‘Golden’ [4]; [8],2.70
same,Skin color ratings,Papayas ‘Golden’ [4]; [9],4.91
same,Skin color ratings,Papayas ‘Golden’ [4]; [10],5.00
